Measured values published in patent publication US20100016247A1, “USING BUDDING YEAST TO SCREEN FOR INHIBITORS OF AURORA KINASES” (FLORIDA STATE UNIVERSITY RESEARCH FOUNDATION, priority 2008, published 2010).
Read-outs that look alike come from different tables or passages of the source.

Experiments:
[1] = tested on: A549 cells; experiment: Cell growth assay (MTT, cell counting); format: cell-based, human; settings: for growth inhibition by MTT assay: A549, 48 hours
Procedure: (§1) A549, Hela and MCF-7 cell lines are cultured in 96-well tissue culture plates at a cell density of 5,000 cells per well in RPMI-I640 or MEM containing 10% fetus bovine serum and 2 mM L-glutamine. After attachment overnight, the medium is replaced and cells are incubated with increasing concentrations of Jadomycin B or its two derivatives, Jadomycin S and T (ranging from 10^−4 M to 10^−8 M). After treatment for 48 hours, 3-(4,5-dimethylthiazol-2-yl)-2,5-diphenyltetrazolium bromide (MTT) assays are carried out in triplication. The concentration-viability curves are fitted and IC50 values are determined. Cells are also plated at a cell density of 10,000 cells per well in six-well tissue culture plates. After attachment overnight, cells are treated with 0, 5, or 10 μg/ml Jadomycin B for 96 hours. Cells are detached every 24 hr by trypsinization to count the cell number. All experiments are repeated three times.

[2] = tested on: MCF-7 cells; experiment: Cell growth assay (MTT, cell counting); format: cell-based, human; settings: for growth inhibition by MTT assay: MCF-7, 48 hours
Procedure: as §1

[3] = tested on: Hela cells; experiment: Cell growth assay (MTT, cell counting); format: cell-based, human; settings: for growth inhibition by MTT assay: Hela, 48 hours
Procedure: as §1

[4] = biological target: T1, purified recombinant human Aurora-B kinase (Homo sapiens, UniProt Q96GD4); experiment: In vitro Aurora-B kinase activity assay (ELISA kit); format: biochemical; settings: for inhibitory effect on Aurora-B: same condition as FIG. 3A, data not shown
T1 construct: purchased Cell Signaling Technology
Procedure: To determine the inhibition of Aurora-B kinase activity by Jadomycin B, an Aurora-B kinase activity assay kit (Cell Signaling Technology) is used according to the manufacturer's instruction. Briefly, 100 ng of purified recombinant human Aurora-B kinase is added to a 100 μl reaction mixture containing 1× kinase buffer and 25 μM cold ATP in the presence of different concentrations of Jadomycin B (ranging from 10^−4 M to 10^−10 M). After incubation at room temperature for 15 min, biotinylated peptide substrate (Cell Signaling Technology) is added to each reaction mixture at a final concentration of 1.5 μM, and the mixtures are further incubated for 30 min. A parallel control experiment is performed under the same conditions without Jadomycin B. The reaction is stopped by addition of 50 μM EDTA (pH 8). The 25 μl reaction mixture is then transferred to a streptavidin-coated 96-well plate (PerkinElmer, Inc) and incubated at room temperature for 60 min. After washing three times with PBS/T, the […] (Ser10) antibody (Cell Signaling Technology) is added to the plate for further incubation at 37° C. for 120 min. After washing, FITC-labeled secondary antibody (Santa Cruz) is added. After incubation at room temperature for 30 min, the plate is finally washed five times, and the fluorescence signal is determined with BMG Polarstar Galaxy (Germany) at 535 nm. The inhibition ratio by Jadomycin B at each concentration is calculated according to the following equation: % Inhibition=100×(1−countstreated/countscontrol). The inhibition curve is then fitted by Originpro7.5 program and the IC50 value of Jadomycin B is determined.
To determine the mode of inhibition of Aurora-B by Jadomycin B, the kinase activity is also examined in the presence of different concentrations of ATP (25, 50, 75, 100, and 200 μM). The inhibition ratio of Aurora-B kinase activity by Jadomycin B at various concentrations is calculated as described above and the inhibition curve is fitted. The IC50 value of Jadomycin B at each ATP concentration is then determined and a linear fit is made with all five IC50 values. The Ki is determined from the intercept of the plot of [ATP] versus IC50 values (IC50=Ki/Km[ATP]+Ki).

[5] = tested on: ipl1-321 mutant yeast cells; experiment: Growth of ipl1-321 mutant yeast cultures by OD600; format: cell-based, Saccharomyces cerevisiae; settings: 25° C.; for growth inhibition of ipl1-321 cells: 10 μg/ml, 24 hr, vs untreated control
Procedure: (§2) Wild-type and ipl1-321 mutant yeast strains are used for this purpose. […] After incubation at about 25° C. for about 24 hrs, the growth of the yeast cultures in the presence of tested compounds is determined by measuring OD600.

[6] = tested on: phosphorylated histone H3 (Ser10) in HepG2 cells; experiment: Western blotting of phosphorylated histone H3 (Ser10); format: cell-based, human; settings: HepG2, 10 μg/ml, 24 hours
Procedure: (§3) A549 cells in the exponential growth phase are treated with 0, 1.25, 2.5, 5, 7.5, or 10 μg/ml Jadomycin B for 24 hours, while Hela and HepG2 cells are treated with 0 or 10 μg/ml of Jadomycin B. Cells are washed with cold PBS and whole-cell extracts are prepared with RIPA lysis buffer containing 60 μg/ml of PMSF. Equal amounts of protein (30 μg) are resolved with 15% SDS-PAGE. After transfer, the membranes are incubated overnight with primary antibodies (1:1000) against phosphorylated histone H3 (Ser10) (Cell Signaling Technology) and β-tubulin (Santa Cruz Biotechnology) at 4° C. The membranes are then incubated with HRP-conjugated goat anti-rabbit secondary antibody (Santa Cruz) at 1:200 followed by Chemiluminescence staining (Millipore).

[7] = tested on: phosphorylated histone H3 (Ser10) in Hela cells; experiment: as above; format: cell-based, human; settings: 10 μg/ml, 24 hours
Procedure: as §3

[8] = tested on: IM-9 cells; settings: cited from earlier work
[9] = tested on: H460 cells; settings: cited from earlier work
[10] = tested on: A549 cells; experiment: Hoechst 33342 staining, chromatin condensation and apoptotic body; format: cell-based, human; settings: 5 μg/ml, 48 hours
Procedure: Hoechst 33342 is a fluorescence dye that can be embedded in DNA double helix and emit blue fluorescence when excited with UV light. Treated and untreated A549 cell samples with 5 μg/ml Jadomycin B for 48 hours are stained with 100 ng/ml Hoechst 33342 for 10 minutes in dark. Stained cells are visualized with a Nikon ECLIPSS TE2000-U fluorescence microscope (Japan) at 100× and 400× magnification. Apoptotic cells show brightly stained nuclei because of the chromosome condensation and the appeared apoptotic bodies.

[11] = tested on: A549 cells; experiment: FACS analysis of apoptosis and cell cycle distribution; format: cell-based, human; settings: 5 μg/ml
Procedure: A549 cells in exponential growth phase are treated with 0 or 5 μg/ml Jadomycin B for up to 48 hours. Cells collected at the indicated times are fixed and stained with Propidium Iodide (PI). FACS analysis is performed to determine the percentage of apoptotic cells and cell cycle distribution by using the EPICS XL flow cytometer and System II software.

[12] = tested on: HepG2 cells; settings: cited from earlier work
[13] = tested on: wild-type yeast cells; experiment: Growth of wild-type yeast cultures by OD600; format: cell-based, Saccharomyces cerevisiae; settings: 25° C.
Procedure: as §2

[14] = tested on: IM9/Bcl-2 cells; settings: cited from earlier work
[15] = tested on: phosphorylated histone H3 (Ser10) in A549 cells; experiment: Western blotting of phosphorylated histone H3 (Ser10); format: cell-based, human; settings: 24 hr
Procedure: as §3, with “Cells” for “A549 cells in the exponential growth phase are treated with 0, 1.25, 2.5, 5, 7.5, or 10 μg/ml Jadomycin B for 24 hours, while Hela and HepG2 cells are treated with 0 or 10 μg/ml of Jadomycin B. Cells”

T1 sequence (Q96GD4 whole entry): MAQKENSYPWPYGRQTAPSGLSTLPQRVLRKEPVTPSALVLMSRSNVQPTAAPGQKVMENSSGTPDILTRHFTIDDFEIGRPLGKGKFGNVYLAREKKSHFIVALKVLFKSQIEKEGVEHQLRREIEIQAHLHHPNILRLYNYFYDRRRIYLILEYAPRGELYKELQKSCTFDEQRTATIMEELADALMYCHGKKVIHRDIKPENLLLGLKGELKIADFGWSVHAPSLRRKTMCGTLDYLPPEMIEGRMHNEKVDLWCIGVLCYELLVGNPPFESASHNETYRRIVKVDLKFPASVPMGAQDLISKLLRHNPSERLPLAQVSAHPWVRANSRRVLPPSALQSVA

Cc1cc(O)c2c(c1)[C@@H]1OC(=O)[C@H](CO)N1C1=C2C(=O)c2cccc(O[C@H]3C[C@@H](O)[C@@H](O)[C@H](C)O3)c2C1=O [Jadomycin S, reference compound]
growth inhibition by MTT assay [1]: inhibited growth | growth inhibition by MTT assay [2]: inhibited growth | growth inhibition by MTT assay [3]: inhibited growth | inhibitory effect on Aurora-B [4]: no inhibitory activity is detected | growth inhibition of ipl1-321 cells [5]: neither shows inhibitory effect

CC[C@H](C)[C@H]1C(=O)O[C@H]2c3cc(C)cc(O)c3C3=C(C(=O)c4c(O[C@H]5C[C@@H](O)[C@@H](O)[C@H](C)O5)cccc4C3=O)N12 [Jadomycin B]
levels of phosphorylated histone H3 [6]: significant decrease | levels of phosphorylated histone H3 [7]: significant decrease | inhibition of proliferation [8]: inhibits the proliferation | inhibition of proliferation [9]: inhibits the proliferation | growth curve, sensitivity of cell line ([1]; A549, 0, 5 or 10 μg/ml, 96 hours, cell counting): sensitive | growth inhibition by MTT assay [1]: most sensitive | growth curve, sensitivity of cell line ([2]; MCF-7, 0, 5 or 10 μg/ml, 96 hours, cell counting): sensitive | growth curve, sensitivity of cell line ([3]; Hela, 0, 5 or 10 μg/ml, 96 hours, cell counting): sensitive | IC50 ([4]; 25 μM ATP, ATP titration FIG. 3B, read-out: IC50 for Aurora-B at given ATP concentration): 12.5 µM | IC50 ([4]; 25 μM ATP, fitted inhibition curve FIG. 3A, read-out: IC50 for inhibition of Aurora-B kinase activity): 10.5 µM | IC50 ([4]; 50 μM ATP, read-out: IC50 for Aurora-B at given ATP concentration): 16.6 µM | IC50 ([4]; 75 μM ATP, read-out: IC50 for Aurora-B at given ATP concentration): 24.5 µM | IC50 ([4]; 100 μM ATP, read-out: IC50 for Aurora-B at given ATP concentration): 32.2 µM | IC50 ([4]; 200 μM ATP, read-out: IC50 for Aurora-B at given ATP concentration): 53.1 µM | Ki ([4]; from linear fit of IC50 versus [ATP]): 6.8 µM | mode of inhibition of Aurora-B kinase ([4]; with respect to ATP, 5 ATP concentrations): competitive inhibition | apoptosis by Hoechst 33342 staining [10]: more and more cells underwent apoptosis | effect on cell cycle [11]: does not block cell cycle | increase of cells in S phase [11]: 2% | percentage of apoptotic cells, treated versus untreated ([11]; 3 hr): almost no difference | portion of apoptotic cells (sub-G1) ([11]; 12 hr): 17.8% | portion of apoptotic cells (sub-G1) ([11]; 24 hr): 44% | portion of apoptotic cells (sub-G1) ([11]; 48 hr): 71.7% | inhibition of proliferation [12]: inhibits the proliferation | growth inhibition of wild-type cells ([13]; 5 μg/ml, 24 hours): little growth inhibition | growth inhibition of wild-type cells ([13]; 10 μg/ml, 24 hr): uninhibited | growth inhibition of wild-type cells ([13]; 100 μg/ml, 24 hours): 60% | growth inhibition of ipl1-321 mutant cells ([5]; 5 μg/ml, 24 hours): 50% | growth inhibition of ipl1-321 cells [5]: almost completely | inhibition of proliferation [14]: inhibits the proliferation | reduction of H3 phosphorylation (grayscale scanning) ([15]; A549, 2 μg/ml): 28% | phosphorylated histone H3 band on western blot ([15]; A549, 10 μg/ml): do not express any detectable phosphorylated histone H3 | reduction of H3 phosphorylation (grayscale scanning) ([15]; A549, 10 μg/ml): 73%

Cc1cc(O)c2c(c1)[C@@H]1OC(=O)[C@H]([C@H](C)O)N1C1=C2C(=O)c2cccc(O[C@H]3C[C@@H](O)[C@@H](O)[C@H](C)O3)c2C1=O [Jadomycin T, reference compound]
growth inhibition by MTT assay [1]: inhibited growth | growth inhibition by MTT assay [2]: inhibited growth | growth inhibition by MTT assay [3]: inhibited growth | inhibitory effect on Aurora-B [4]: no inhibitory activity is detected | growth inhibition of ipl1-321 cells [5]: neither shows inhibitory effect
